Data: ChEMBL document CHEMBL3046433, “Synthesis and Antimuscarinic Activity of Derivatives of 2-Substituted-1,3-Dioxolanes” (Med Chem Res, 2005)

Tests used:
[1] = target: Muscarinic acetylcholine receptor M3 (Cavia porcellus, UniProt Q8VH26); assay: Antagonist activity at Cavia porcellus (guinea pig) ileum M3 receptor after 30 min; type: tissue-based; conditions: read-out: pA2 (converted)
Muscarinic receptor 2 = target: T1, Muscarinic receptor 2 (Cavia porcellus, UniProt Q8VH27); assay: Antagonist activity at Cavia porcellus (guinea pig) left atria M2 receptor after 2 hr; conditions: read-out: pA2 (converted)
T1 sequence (Q8VH27 whole entry): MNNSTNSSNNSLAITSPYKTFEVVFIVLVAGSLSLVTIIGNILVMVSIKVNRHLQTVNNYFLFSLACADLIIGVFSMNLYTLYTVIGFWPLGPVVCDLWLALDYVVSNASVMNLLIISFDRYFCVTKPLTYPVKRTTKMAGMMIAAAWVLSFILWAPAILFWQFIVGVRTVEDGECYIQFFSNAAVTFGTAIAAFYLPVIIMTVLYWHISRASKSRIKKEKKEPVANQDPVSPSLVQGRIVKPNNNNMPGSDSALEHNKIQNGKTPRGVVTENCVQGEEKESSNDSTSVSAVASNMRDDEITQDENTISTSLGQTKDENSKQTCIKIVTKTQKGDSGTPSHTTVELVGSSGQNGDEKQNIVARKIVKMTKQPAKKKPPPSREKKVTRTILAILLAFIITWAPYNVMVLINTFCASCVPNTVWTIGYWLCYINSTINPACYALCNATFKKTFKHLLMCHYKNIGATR

Cavia porcellus = organism: Cavia porcellus; assay: Selectivity ratio of pKb for Cavia porcellus (guinea pig) ileum M3 receptor to pKb for Cavia porcellus (guinea pig) left atria M2 receptor; type: tissue-based; conditions: Atrium/Ileum
[2] = Selectivity ratio of pKb for rabbit vas deferens M1 receptor to pKb for guinea pig left atria M2 receptor
[3] = Selectivity ratio of pKb for rabbit vas deferens M1 receptor to pKb for guinea pig ileum M3 receptor; type: tissue-based
[4] = target: Muscarinic acetylcholine receptor M3 (Cavia porcellus) (UniProt Q8VH26); assay: Binding affinity to Cavia porcellus (guinea pig) ileum M3 receptor after 30 min; type: tissue-based
Oryctolagus cuniculus = organism: Oryctolagus cuniculus; assay: Binding affinity to Oryctolagus cuniculus (rabbit) vas deferens M1 receptor after 1 hr
[5] = target: T2, Muscarinic receptor 2 (Cavia porcellus) (UniProt Q8VH27); assay: Binding affinity to Cavia porcellus (guinea pig) left atria M2 receptor after 2 hr
T2 sequence (whole entry): T1 sequence (Q8VH27 whole entry)

Muscarinic acetylcholine receptor M3 (Cavia porcellus), sequence (Q8VH26 1-587): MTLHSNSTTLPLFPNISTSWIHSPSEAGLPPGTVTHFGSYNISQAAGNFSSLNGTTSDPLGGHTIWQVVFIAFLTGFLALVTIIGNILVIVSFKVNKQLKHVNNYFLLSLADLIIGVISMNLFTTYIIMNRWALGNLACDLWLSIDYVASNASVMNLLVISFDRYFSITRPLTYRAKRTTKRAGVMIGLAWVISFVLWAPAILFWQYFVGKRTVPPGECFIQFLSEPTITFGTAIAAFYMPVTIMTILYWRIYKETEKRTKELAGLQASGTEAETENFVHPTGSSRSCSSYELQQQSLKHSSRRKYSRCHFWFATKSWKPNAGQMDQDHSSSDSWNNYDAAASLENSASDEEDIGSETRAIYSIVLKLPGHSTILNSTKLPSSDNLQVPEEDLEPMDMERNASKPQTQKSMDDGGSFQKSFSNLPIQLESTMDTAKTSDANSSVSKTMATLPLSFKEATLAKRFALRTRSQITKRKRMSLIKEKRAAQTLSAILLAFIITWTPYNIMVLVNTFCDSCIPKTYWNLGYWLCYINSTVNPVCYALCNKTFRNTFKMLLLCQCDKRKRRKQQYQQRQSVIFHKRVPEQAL
Muscarinic acetylcholine receptor M3, sequence (Q8VH26 whole entry): as the sequence (Q8VH26 1-587) above

| Structure (SMILES) | Kb [1] [nM] | Kb (Muscarinic receptor 2) [nM] | Ratio pKb [2] | pKb [4] | pKb (Oryctolagus cuniculus) | pKb [5] | Ratio pKb (Cavia porcellus) | Ratio pKb [3] |
| --- | --- | --- | --- | --- | --- | --- | --- | --- |
| CN(C)[C@H]1CO[C@@H](C(c2ccccc2)c2ccccc2)OC1 | 5.37 | 28.2 |  |  |  |  |  |  |
| C[C@H]1OC(c2ccccc2)(c2ccccc2)O[C@@H]1CN(C)C (relative stereo) |  |  | 1 | 6.71 | 6.87 | 6.71 | 1 | 1 |
| CN(C)C[C@@H]1CO[C@@H](C(c2ccccc2)c2ccccc2)O1 |  |  | 2 | 6.67 | 6.9 | 6.56 | 1 | 2 |
| CN(C)C[C@@H]1CO[C@H](C(c2ccccc2)c2ccccc2)O1 |  |  | 5 | 6.07 | 7.31 | 6.62 | 0.3 | 17 |
| C[C@@H]1OC(c2ccccc2)(c2ccccc2)O[C@@H]1CN(C)C (relative stereo) |  |  | 0.7 | 6.44 | 6.35 | 6.48 | 0.9 | 0.8 |

Now from value to molecule, other results behind:

| Kb [1] [nM] | Kb (Muscarinic receptor 2) [nM] | Ratio pKb [2] | pKb [4] | pKb (Oryctolagus cuniculus) | pKb [5] | Structure (SMILES) | Ratio pKb (Cavia porcellus) | Ratio pKb [3] |
| --- | --- | --- | --- | --- | --- | --- | --- | --- |
|  |  | 1 | 6.72 | 7.15 | 7.11 | CN(C)CC1COC(c2ccccc2)(c2ccccc2)O1 (centres undefined) | 0.4 | 3 |
| 372 | 1580 |  |  |  |  | CN(C)[C@H]1CO[C@H](C(c2ccccc2)c2ccccc2)OC1 |  |  |
